The test system of this data set is CCRIS mutagenicity, Ames/micronucleus/aberration tests. The data set is described as follows: CCRIS mutagenicity studies.
Setting [1] is: Test System: AMES SALMONELLA TYPHIMURIUM, Strain/Indicator: TA100, Metabolic Activation: HAMSTER, LIVER, S-9, AROCLOR 1254 (10%), Method: PREINCUBATION
Where [2] appears, read: Test System: AMES SALMONELLA TYPHIMURIUM, Strain/Indicator: TA100, Metabolic Activation: NONE, Method: PREINCUBATION
[3] abbreviates: Test System: AMES SALMONELLA TYPHIMURIUM, Strain/Indicator: TA100, Metabolic Activation: RAT, LIVER, S-9, AROCLOR 1254 (10%), Method: PREINCUBATION
[4] abbreviates: Test System: AMES SALMONELLA TYPHIMURIUM, Strain/Indicator: TA1535, Metabolic Activation: HAMSTER, LIVER, S-9, AROCLOR 1254 (10%), Method: PREINCUBATION
Where [5] appears, read: Test System: AMES SALMONELLA TYPHIMURIUM, Strain/Indicator: TA1535, Metabolic Activation: NONE, Method: PREINCUBATION
[6] abbreviates: Test System: AMES SALMONELLA TYPHIMURIUM, Strain/Indicator: TA1535, Metabolic Activation: RAT, LIVER, S-9, AROCLOR 1254 (10%), Method: PREINCUBATION
Setting [7] is: Test System: AMES SALMONELLA TYPHIMURIUM, Strain/Indicator: TA98, Metabolic Activation: NONE, Method: PREINCUBATION
Setting [8] is: Test System: AMES SALMONELLA TYPHIMURIUM, Strain/Indicator: TA98, Metabolic Activation: NONE, Method: STANDARD PLATE.
The mark [9] stands for this setting: Test System: AMES SALMONELLA TYPHIMURIUM, Strain/Indicator: TA98, Metabolic Activation: RAT, LIVER, S-9, AROCLOR 1254, Method: STANDARD PLATE.
The mark [10] stands for this setting: Test System: AMES SALMONELLA TYPHIMURIUM, Strain/Indicator: TA100, Metabolic Activation: NONE, Method: STANDARD PLATE.
Setting [11] is: Test System: AMES SALMONELLA TYPHIMURIUM, Strain/Indicator: TA100, Metabolic Activation: RAT, LIVER, S-9, AROCLOR 1254, Method: STANDARD PLATE.
The mark [12] stands for this setting: Test System: AMES SALMONELLA TYPHIMURIUM, Strain/Indicator: TA1535, Metabolic Activation: NONE, Method: STANDARD PLATE.
Where [13] appears, read: Test System: AMES SALMONELLA TYPHIMURIUM, Strain/Indicator: TA1535, Metabolic Activation: RAT, LIVER, S-9, AROCLOR 1254, Method: STANDARD PLATE.
The mark [14] stands for this setting: Test System: AMES SALMONELLA TYPHIMURIUM, Strain/Indicator: TA1537, Metabolic Activation: NONE, Method: STANDARD PLATE.
Where [15] appears, read: Test System: AMES SALMONELLA TYPHIMURIUM, Strain/Indicator: TA1537, Metabolic Activation: RAT, LIVER, S-9, AROCLOR 1254, Method: STANDARD PLATE.

Calls of active or inactive are those of the source. No rule for the calls is given here.

On to `CCCCOCC1CO1` (stereo not given), for which the mutagenic call by setting is: under setting [1], “active; positive”; under setting [2], “active; positive”; (Test System: AMES SALMONELLA TYPHIMURIUM, Strain/Indicator: TA100, Metabolic Activation: NONE, Method: SPOT) “active; positive”; under setting [3], “active; positive”; under setting [4], “active; positive”; under setting [5], “active; positive”. In addition, the mutagenic call under setting [6] was “active; positive”.

Regarding `Cc1cccc2cc([N+](=O)[O-])ccc12`, under setting [7], the mutagenic call was “active; positive”.

For the compound `COc1cc2c(c3oc(=O)c4c(c13)CCC4=O)[C@@]1(O)[C@@H](O2)O[C@@H]2O[C@@H]21`, the mutagenic call by setting is: (Test System: AMES SALMONELLA TYPHIMURIUM, Strain/Indicator: TA100, Metabolic Activation: NONE, Method: MICROSUSPENSION) “active; positive”; (Test System: AMES SALMONELLA TYPHIMURIUM, Strain/Indicator: TA100, Metabolic Activation: RAT, LIVER, S-9, AROCLOR 1254, Method: MICROSUSPENSION) “active; positive”.

Take `Clc1ccnc2ccccc12`: the mutagenic call (Test System: AMES SALMONELLA TYPHIMURIUM, Strain/Indicator: TA100, Metabolic Activation: RAT, LIVER, S-9, PHENOBARBITAL AND 5,6-BENZOFLAVONE, Method: PREINCUBATION) was “active; positive”.

Regarding `Cc1ccc(S(=O)(=O)n2ncc(Cl)c(Cl)c2=O)cc1`, the mutagenic call is “inactive; negative” under setting [8]; “inactive; negative” under setting [9]; “inactive; negative” under setting [10]; “inactive; negative” under setting [11]; “inactive; negative” under setting [12]; “inactive; negative” under setting [13]. Besides, the mutagenic call reads like this: under setting [14], “inactive; negative”; under setting [15], “inactive; negative”.

With `ClC(Br)Br`, the mutagenic call is “inactive; negative; authors describe as weakly positive” (End Point: IN VITRO CHROMOSOMAL ABERRATIONS, Test System: CHINESE HAMSTER LUNG FIBROBLAST CELLS (CHL/IU), Metabolic Activation: RAT, LIVER, S-9, PHENOBARBITAL AND 5,6-BENZOFLAVONE); “inactive; negative” (End Point: IN VITRO CHROMOSOMAL ABERRATIONS, Test System: CHO-LB CELLS, Metabolic Activation: NONE); “inactive; negative” (End Point: IN VIVO MICRONUCLEUS, Test System: BONE MARROW POLYCHROMATIC ERYTHROCYTES, Species: MOUSE, Strain/Sex: DDY/MALE, Route: IP); “active; positive” (Test System: AMES SALMONELLA TYPHIMURIUM, Strain/Indicator: RSJ100, Metabolic Activation: NONE, Method: STANDARD PLATE); “inactive; negative” (Test System: AMES SALMONELLA TYPHIMURIUM, Strain/Indicator: TA98, Metabolic Activation: HAMSTER, LIVER, S-9, AROCLOR 1254 (10%), Method: PREINCUBATION); “inactive; negative” (Test System: AMES SALMONELLA TYPHIMURIUM, Strain/Indicator: TA98, Metabolic Activation: HAMSTER, LIVER, S-9, AROCLOR 1254, Method: PREINCUBATION). The mutagenic call under setting [7] was “inactive; negative”; the mutagenic call under setting [8] is “inactive; negative”; the mutagenic call (Test System: AMES SALMONELLA TYPHIMURIUM, Strain/Indicator: TA98, Metabolic Activation: RAT, LIVER, S-9, AROCLOR 1254 (10%), Method: PREINCUBATION) was “inactive; negative”; the mutagenic call (Test System: AMES SALMONELLA TYPHIMURIUM, Strain/Indicator: TA98, Metabolic Activation: RAT, LIVER, S-9, AROCLOR 1254, Method: PREINCUBATION) was “inactive; negative”; the mutagenic call under setting [9] is “active; positive”; the mutagenic call under setting [1] is “inactive; negative”. Also, the mutagenic call is “inactive; negative” (Test System: AMES SALMONELLA TYPHIMURIUM, Strain/Indicator: TA100, Metabolic Activation: HAMSTER, LIVER, S-9, AROCLOR 1254, Method: PREINCUBATION); “active; positive” (Test System: AMES SALMONELLA TYPHIMURIUM, Strain/Indicator: TA100, Metabolic Activation: NONE, Method: DESICCATOR); “inactive; negative” (Test System: AMES SALMONELLA TYPHIMURIUM, Strain/Indicator: TA100, Metabolic Activation: NONE, Method: FLUCTUATION TEST); “inactive; negative” under setting [2]; “inactive; negative” under setting [10]; “inactive; negative” under setting [3]. Moreover, the mutagenic call is “inactive; negative” (Test System: AMES SALMONELLA TYPHIMURIUM, Strain/Indicator: TA100, Metabolic Activation: RAT, LIVER, S-9, AROCLOR 1254, Method: FLUCTUATION TEST); “inactive; negative” (Test System: AMES SALMONELLA TYPHIMURIUM, Strain/Indicator: TA100, Metabolic Activation: RAT, LIVER, S-9, AROCLOR 1254, Method: PREINCUBATION); “active; positive” under setting [11]; “inactive; negative” under setting [4]; “inactive; negative” (Test System: AMES SALMONELLA TYPHIMURIUM, Strain/Indicator: TA1535, Metabolic Activation: HAMSTER, LIVER, S-9, AROCLOR 1254, Method: PREINCUBATION); “inactive; negative” under setting [5]. In addition, the mutagenic call reads like this: under setting [12], “active; positive”; under setting [6], “inactive; negative”; (Test System: AMES SALMONELLA TYPHIMURIUM, Strain/Indicator: TA1535, Metabolic Activation: RAT, LIVER, S-9, AROCLOR 1254, Method: PREINCUBATION) “inactive; negative”; under setting [13], “active; positive”; (Test System: AMES SALMONELLA TYPHIMURIUM, Strain/Indicator: TA1537, Metabolic Activation: HAMSTER, LIVER, S-9, AROCLOR 1254 (10%), Method: PREINCUBATION) “inactive; negative”; (Test System: AMES SALMONELLA TYPHIMURIUM, Strain/Indicator: TA1537, Metabolic Activation: HAMSTER, LIVER, S-9, AROCLOR 1254, Method: PREINCUBATION) “inactive; negative”. For the same compound, the mutagenic call (Test System: AMES SALMONELLA TYPHIMURIUM, Strain/Indicator: TA1537, Metabolic Activation: NONE, Method: PREINCUBATION) is “inactive; negative”; the mutagenic call under setting [14] was “active; positive”; the mutagenic call (Test System: AMES SALMONELLA TYPHIMURIUM, Strain/Indicator: TA1537, Metabolic Activation: RAT, LIVER, S-9, AROCLOR 1254 (10%), Method: PREINCUBATION) was “inactive; negative”; the mutagenic call (Test System: AMES SALMONELLA TYPHIMURIUM, Strain/Indicator: TA1537, Metabolic Activation: RAT, LIVER, S-9, AROCLOR 1254, Method: PREINCUBATION) was “inactive; negative”; the mutagenic call under setting [15] was “active; positive”; the mutagenic call (Test System: MOUSE LYMPHOMA, Strain/Indicator: L5178Y (TK+/TK-), Metabolic Activation: NONE, Method: MICROWELL) was “inactive; negative”. Further, the mutagenic call runs as follows: (Test System: MOUSE LYMPHOMA, Strain/Indicator: L5178Y (TK+/TK-), Metabolic Activation: NONE, Method: SUSPENSION/PLATE) “active; positive”; (Test System: MOUSE LYMPHOMA, Strain/Indicator: L5178Y (TK+/TK-), Metabolic Activation: S-9, Method: MICROWELL) “active; positive”; (Test System: UDS RAT HEPATOCYTES, Strain/Indicator: THY INCORP, Metabolic Activation: NONE, Method: AUTORADIOGRAPHY) “inactive; negative”.

For the compound `O=C(Nc1cccc(Cl)c1)c1csc([N+](=O)[O-])c1`, the mutagenic call is, setting by setting: under setting [8], “active; positive”; under setting [10], “active; positive”.
